Measured values taken from paper PMC7054612, “In vitro and in vivo pharmacokinetic characterization of LMT-28 as a novel small molecular interleukin-6 inhibitor” (Asian-Australasian Journal of Animal Sciences, 2019).
Converted amounts (≈) assume the structure as drawn. Like-named read-outs stand apart in the source and are kept apart here.

Tests used:
[1] = Stability during sample handling and processing for LC-MS/MS analysis in biological fluids; settings: plasma or microsomal reaction solution
Procedure: (§1) The concentrations of LMT-28 in plasma or microsomal reaction solution were determined by LC-MS/MS. For the sample preparation before LC-MS/MS analysis, three times (75 μL) of acetonitrile containing internal standard (carbamazepine 10 ng/mL) were added to 25 μL aliquots of the plasma samples. The samples were vortex-mixed and centrifuged at 10,000 g for 5 min at 4°C for the protein precipitation. The supernatant (90 μL) was transferred to LC vials and 5 μL was injected onto a LC-MS/MS system.
(§2) Mass spectrometric detection of LMT-28 was performed on an API 4000 Qtrap mass spectrometer (AB Sciex, Foster City, CA, USA) equipped with a positive electrospray ionization source. The chromatographic separation was performed on Hypersil Gold C18 column (50 mm×2.1 mm i.d., 3 μm particle size; ThermoFisher Scientific, USA) with a flow rate of 0.3 mL/min. The positive multiple reaction monitoring (MRM) mode were based on the most abundant product ions at m/z 312 → 165 for LMT-28, and m/z 237 → 194 for internal standard. Other parameters were the nebulizing (GS1), 50 psi; heating (GS2), 50 psi; collision energy, 23 eV for LMT-28 and 15 eV for internal standard, respectively. Analyst software version 1.4.2 (AB Sciex, USA) was used for the analysis of LMT-28 concentrations.

[2] = tested on: IL-6-induced STAT3 activation; assay: Western blot analysis for inhibitory effect on IL-6-induced signaling (p-STAT3) in HepG2 cells; assay type: cell-based; settings: HepG2 cells pre-treated with LMT-28 (1, 3, 10, 30, 100 μM) for 1 h, then IL-6 10 ng/mL for 10 min; Western blotting
Procedure: HepG2 cells were seeded in MEM media (Welgene, Gyeongsan, Korea) with 10% (v/v) feta bovine serum, streptomycin (100 U/mL), and penicillin (100 U/mL; Life Technologies, Carlsbad, CA, USA). After seeding, cells were starved overnight, treated with LMT-28 for 1 h, and stimulated with IL-6 (10 ng/mL; R&D Systems, Minneapolis, MN, USA) for 10 min. Cells were treated with cell lysis buffer (Promega, Madison, WI, USA) for 30 min on ice. Cell lysates were separated on an 8% sodium dodecyl sulfate-polyacrylamide gel electrophoresis gel, then transferred to nitrocellulose membranes (Schleicher & Schuell, Dassel, Germany). The membranes were blocked overnight in Tris-buffered solution (50 mM Tris-HCl [pH 7.4], 150 mM NaCl, 0.1% Tween 20) containing 5% nonfat dry milk at 4°C and then incubated for 1 h with the appropriate primary Abs against p-STAT3 (MilliporeSigma, Burlington, MA, USA) or α-tubulin in Tris-buffered solution (TBST; 50 mM Tris-HCl [pH 7.4], 150 mM NaCl, 0.1% Tween 20) containing 5% nonfat dry milk at room temperature. The membranes were washed (10 min, five times) and incubated for 1 h with horseradish peroxidase-conjugated secondary Abs diluted to 1:6,000. After 10 washes, the membranes were incubated with enhanced chemiluminescence reagents (MilliporeSigma, USA) and chemiluminescent signals were visualized using X-ray film.

[3] = Equilibrium solubility in water, 24 h shake-flask method; assay type: physicochemical; settings: thermodynamic from solid, 25°C
Procedure: (§3) The shake-flask method was applied to measure the equilibrium solubility of LMT-28 [16, 17]. Excess amount of LMT-28 was added into the water and the suspension was shaken at 25°C during 24 h in a flask for equilibrium solubility. The solution, then, was filtered and the concentration of LMT-28 in the filtered solution was quantified using ultra HPLC (ThermoFisher Scientific, Waltham, MA, USA) at wavelength 254 nm. The lipophilicity of LMT-28 was measured by using GLpKa (Pion, Cambridge, MA, USA) based on dip-probe absorption spectroscopy (D-PAS) method. The resultant values were calculated by LogP software (Pion, USA) and the computational predictions for number of hydrogen bond donors, hydrogen bond acceptors, rotatable bonds and predicted polar surface area (PSA) and LogS were made using Percepta software (ACD/Labs; Toronto, Canada).

[4] = Metabolic stability in rat liver microsomes; assay type: in vitro ADME; settings: pH 7.4
Procedure: (§4) Metabolic stability using rat and human liver microsomes (Corning Gentest, USA) of LMT-28 was performed according to previous reported protocol. In brief, NADPH regeneration solution (Corning Gentest, USA) was added to initiate the metabolic reaction after mixing LMT-28 (final concentrations; 1 μM) with human or rat liver microsomes (0.5 mg protein/mL) in 100 mM potassium phosphate buffer (pH 7.4). After incubation at 37°C at 0, 10, 30, and 60 min, the reaction was terminated by adding three times of ice-cold acetonitrile containing internal standard (carbamazepine 10 ng/mL). After mixing by vortex and centrifugation at 10,000 g for 5 min at 4°C, the supernatants were transferred to fresh LC vials. Samples (5 μL) were analyzed by directly injection into a liquid chromatography-tandem mass spectrometry (LC-MS/MS) system for the quantification of LMT-28.
(§5) The metabolic half-life and in vitro intrinsic clearance of LMT-28 were calculated by next equations [19].
(§6) Half-life (t1/2) (h)=-0.693/KCLint,in vitro(μL/min/mg protein)=(0.693/t1/2,microsomal)×(μL incubation/mg microsomal protein)CLint,in vivo(mL/min/kg)=(0.693/t1/2,microsomal)×(mL incubation/mg microsomal protein)×(mg microsomal protein/g liver)×(g liver/kg body weight)
(§7) where K is the elimination rate constant of LMT-28 in the microsomal metabolic reaction, half-life (t1/2) is microsomal metabolic half-life, CLint, in vitro is in vitro intrinsic clearance, and CLint, in vivo is in vivo intrinsic clearance. The liver weight relative to the body weight in the rat and human are 40 and 21 g/kg, respectively.

[5] = In vivo pharmacokinetic study in male BALB/c mice; settings: for AUC(0-t): n = 4, read-out: AUC8h; for half-life: n = 4, read-out: t1/2 (terminal elimination half-life) (converted)
Procedure: To evaluate in vivo pharmacokinetics in mice, LMT-28 was dissolved in phosphate-buffered saline (pH 7.4) containing 5% (w/v) carboxymethyl cellulose (MilliporeSigma, USA) and administered orally by using oral needle and intravenously in the mouse tail vein at the dose of 5 mg/kg to male BALB/c mice (22 to 25 g) after overnight fasting. Blood samples (50 μL) were collected at 0.5, 1, 2, 4, 6, and 8 h after oral administration of LMT-28. After taking the blood samples from mice, the samples were centrifuged to obtain plasma samples at 4°C and 10,000 g and obtained plasma samples were stored at −20°C. These plasma samples (25 μL) were used for the quantification of LMT-28 concentration in mice.
as §1, §2
The plasma concentrations versus time profiles of LMT-28 in mice were analyzed by a non-compartmental model using WinNonlin software ver 5.3 (Pharsight, Mountain View, CA, USA). The pharmacokinetic parameters such as area under the plasma concentration-time curve (AUC), peak plasma concentration (Cmax) and the time to reach a peak concentration (Tmax), terminal elimination half-life (t1/2), mean residence time (MRT) after oral administration were obtained from each mouse’s plasma concentration-time plots for LMT-28. All data were expressed as the mean±standard deviation. A value of p<0.05 by student t-test or analysis of variance analysis was considered to be statistically significant.

[6] = MDCK cell permeability assay; assay type: in vitro ADME, canine; settings: dog, MDCK cell monolayers
Procedure: In order to determine cell permeability of LMT-28, Madin-Darby canine kidney (MDCK) cells were cultured and seeded at a density of 6×10^4cells/cm^2 in 12-well Transwell plates. After checking cell monolayer integrity, the transepithelial electrical resistance (TEER) values (>500 ohms) were measured using an EVOM epithelial voltohmmeter (World Precision Instruments, Sarasota, FL, USA). After pre-incubation for 30 min at 37°C, LMT-28 (final concentrations of 2, 10, and 50 μM) was added to the donor wells in transport assay system. Sample aliquots (100 μL) were collected every 30 min for 120 min, and the same volume of fresh buffer added. The aliquots were stored at −20°C until quantitative analysis of LMT-28 concentrations by LC–MS/MS system. The apparent permeability coefficient (Papp, cm/s) was calculated as following equation: […]
where dQ/dt is the permeation rate across cell monolayer, A is the surface area of the monolayer (0.33 cm^2), and C0 is the initial donor concentration.

[7] = Lipophilicity (LogP) by GLpKa, D-PAS method; assay type: physicochemical
Procedure: as §3

[8] = Metabolic stability in human liver microsomes; assay type: in vitro ADME; settings: pH 7.4
Procedure: as §4, §5, §6, §7

[9] = Plasma protein binding assay; assay type: in vitro ADME
[10] = mouse, plasma, intravenous (i.v) 5 mg/kg, n = 4
[11] = mouse, plasma, intravenous (i.v) 5 mg/kg
[12] = mouse, plasma, oral (p.o.) 5 mg/kg, n = 4
[13] = mouse, plasma, oral (p.o.) 5 mg/kg

Which “Stability under sample handling and processing” value [1] does the source give for `C=C(CCCCC)[C@@H](O)[C@H](C)C(=O)N1C(=O)OC[C@@H]1C(C)C` [LMT-28] here?
The value was “stable under various conditions of sample handling and processing”.

And the “Inhibition of IL-6-induced p-STAT3 expression” value [2]?
The value was “inhibit the IL-6-induced p-STAT3 expression in a dose-dependent manner”.

And the solubility at 24 h [3]?
Its solubility at 24 h is 390 ± 120 µg/mL (≈ 1250 µM).

And the half-life at 1 μM ([4]; rat liver microsomes 0.5 mg protein/mL, 1 μM, NADPH, 37°C, read-out: Liver microsomal stability half-life (t1/2, rat))?
The half-life at 1 μM was 0.255 ± 0.0233 h.

And the microsomal CLint at 1 μM ([4]; rat liver microsomes, calculated from rat microsomal half-life, read-out: In vitro intrinsic clearance CLint, in vitro (Rat))?
The microsomal CLint at 1 μM was 91 ± 8.4 µL/min/mg.

What about the CLint scaled at 1 μM ([4]; rat liver microsomes, scaled from rat microsomal half-life, liver weight 40 g/kg, read-out: In vivo intrinsic clearance CLint, in vivo (Rat)) of the same compound?
Its CLint scaled at 1 μM is 164 ± 15 mL/min/kg.

What about the bioavailability ([5]; male, BALB/c, mouse, plasma, oral, 5 mg/kg, oral vs intravenous, 5 mg/kg, read-out: F (bioavailability)) of the same compound?
Its bioavailability is ~38.2%.

What about the AUC(0-inf) [5, 10] of the same compound?
Its AUC(0-inf) is 677 ± 264 ng·h/mL.

And the MRT [5, 10]?
Its MRT is 1.58 ± 0.32 h.

What about the clearance [5, 10] of the same compound?
Its clearance is 144 mL/min/kg.

What about the AUC(0-t) [5, 11] of the same compound?
Its AUC(0-t) is 661 ± 253 ng·h/mL.

And the Vd ([5]; mouse, plasma, intravenous (i.v) 5 mg/kg, n = 4, read-out: Vss)?
The Vd was 12.9 ± 4.66 L/kg.

And the half-life [5, 11]?
Its half-life is 1.37 ± 0.29 h.

What about the AUC(0-inf) [5, 12] of the same compound?
Its AUC(0-inf) is 302 ± 209 ng·h/mL.

And the Cmax [5, 12]?
Its Cmax is 137 ± 100 ng/mL.

And the MRT [5, 12]?
Its MRT is 1.9 ± 0.55 h.

What about the Tmax [5, 12] of the same compound?
Its Tmax is 0.8 ± 0.67 h.

And the AUC(0-t) [5, 13]?
Its AUC(0-t) is 292 ± 202 ng·h/mL.

And the half-life [5, 13]?
Its half-life is 1.13 ± 0.27 h.

And the “Share of total AUC (AUC∞) covered by AUC8h” value ([5]; oral 5 mg/kg)?
Its value is “approximately 96.7%”.

And the Papp at 120 min, 10 μM [6]?
The Papp at 120 min, 10 μM was 9.7 ± 1.8 ×10⁻⁶ cm/s.

What about the logP [7] of the same compound?
Its logP is 3.65 ± 0.22.

What about the microsomal CLint at 1 μM ([8]; human liver microsomes, calculated from human microsomal half-life, read-out: In vitro intrinsic clearance CLint, in vitro (Human)) of the same compound?
Its microsomal CLint at 1 μM is 64 ± 8.1 µL/min/mg.

What about the CLint scaled at 1 μM ([8]; human liver microsomes, scaled from human microsomal half-life, liver weight 21 g/kg, read-out: In vivo intrinsic clearance CLint, in vivo (Human)) of the same compound?
Its CLint scaled at 1 μM is 60 ± 7.7 mL/min/kg.

And the half-life at 1 μM ([8]; human liver microsomes 0.5 mg protein/mL, 1 μM, NADPH, 37°C, read-out: Liver microsomal stability half-life (t1/2, human))?
Its half-life at 1 μM is 0.365 ± 0.0467 h.

And the “Plasma protein to which the drug is bound” value ([9]; at 2 μM)?
The value was “mostly bound to serum albumin”.

What about the fraction unbound at 2 μM ([9]; plasma, read-out: Plasma protein binding (bound drug %) (converted)) of the same compound?
Its fraction unbound at 2 μM is 0.076.
